The values below come from patent publication US6894049B1, “Platinum complexes as antitumor agents” (AnorMED, Inc., priority 2000, dated 2005).

The Aqueous Solubility is the concentration that dissolves in the medium under given conditions.

The test system of one data set is CH1R. Briefly: Cell proliferation, cisplatin-resistant human cancer cell line CH1R. In kind it is cell-based. The settings on record: for resistance factor: CH1R/CH1, in brackets; for IC50: CH1R, read-out: concentration necessary to achieve a 50% decrease in cell proliferation. The method, then:
(§1) The complexes of the invention were tested against human cancer cell lines grown in cell culture according to established testing procedures (described by Holford, et al., British J. Cancer 1998 77(3) 366-373). The results are given in concentrations (μM) necessary to achieve a 50% decrease in cell proliferation, with resistance factors in brackets for the cisplatin-resistant cell lines.

Another data set has as its system A2780. Briefly: Cell proliferation, human cancer cell line A2780. In kind it is cell-based. To be noted: read-out: concentration necessary to achieve a 50% decrease in cell proliferation. The method, then:
as §1

The next data set concerns A2780R. Briefly: Cell proliferation, cisplatin-resistant human cancer cell line A2780R. It is filed as cell-based. The settings on record: for resistance factor: A2780R/A2780, in brackets; for IC50: A2780R, read-out: concentration necessary to achieve a 50% decrease in cell proliferation. The method, then:
as §1

Another data set concerns CH1. Briefly: Cell proliferation, human cancer cell line CH1. To be noted: read-out: concentration necessary to achieve a 50% decrease in cell proliferation. In kind it is cell-based. The method, then: as §1
Another data set deals with 41M. Briefly: Cell proliferation, human cancer cell line 41M. To be noted: read-out: concentration necessary to achieve a 50% decrease in cell proliferation. In kind it is cell-based. On the procedure:
as §1

For the next data set, the system named is 41MR. Briefly: Cell proliferation, cisplatin-resistant human cancer cell line 41MR. In kind it is cell-based. To be noted: for resistance factor: 41MR/41M, in brackets; for IC50: 41MR, read-out: concentration necessary to achieve a 50% decrease in cell proliferation. On the procedure:
as §1

The nature of data set [1]: Maximum tolerated dose in mice. It is filed as in vivo.
Data set [2] can be described thus: Aqueous solubility at ambient conditions. It is filed as physicochemical.
The conditions of data set [3]: background statement; cited from earlier work.

Read-outs that look alike come from different tables or passages of the source.

`Cc1cc(C)[n+]([Pt-2]([NH3+])([Cl])[Cl])[nH]1` [Example 1, (SP-4-3)-amminedichloro(3.5-dimethylpyrazole)platinum(II)]: the resistance factor in the data set with CH1R came out at 1.9; with A2780R it was 3.4; in the data set with 41MR, 1.3. In addition, the IC50 turned out to be 3.8 µM in the data set with CH1R; 2.7 µM in the data set with A2780; 9.2 µM with A2780R; 2.05 µM in the data set with CH1; 3.5 µM in the data set on 41M; 4.5 µM with 41MR.
With `Cc1cc(C)[n+]([Pt-2]([NH3+])([Cl])[Cl])n1C` [Example 2, (SP-4-3)-amminedichloro(1,3,5-trimethylpyrazole)platinum(II)], the values for the resistance factor in the data set on CH1R, in the data set on A2780R and in the data set with 41MR were 1.2, 1.8 and 1.8, respectively. For the same compound, the IC50 with CH1R is 11 µM; in the data set on A2780, 8.5 µM; in the data set with A2780R, 15.5 µM; with CH1, 9.2 µM; with 41M, 8.5 µM; in the data set with 41MR, 15.5 µM. In addition, the “decrease in resistance factor” value in the data set on A2780R (A2780/A2780R, compared to cis-ammine(2-methylpyridine)dichloroplatinum(II)) worked out at 2.6 fold. The “maximum tolerated dose (MTD)” value in [1] is reported as “greater than 50 mg/Kg”.
Turning to `Cn1cc[n+]([Pt-2]([NH3+])([Cl])[Cl])c1` [Example 3], the results for the resistance factor in the data set with CH1R, in the data set on A2780R and in the data set on 41MR were 1.4, 2.6 and 1.7, respectively. The IC50 in the data set with CH1R is 10.5 µM; with A2780, 6.4 µM; in the data set on A2780R it was 16.5 µM; in the data set with CH1, 7.6 µM; with 41M, 7.4 µM; with 41MR it was 12.5 µM.
On to `Cc1cc(C)[n+]([Pt-2]([NH3+])([Cl])[Cl])o1` [Example 4], for which the resistance factor is reported as 2.5 in the data set on CH1R and 6.4 in the data set with A2780R. For the same compound, the IC50 in the data set on CH1R was determined as 8 µM; in the data set on A2780, 3.7 µM; with A2780R, 23.5 µM; with CH1 it was 3.2 µM; with 41M, 8 µM; in the data set with 41MR, 6 µM. The “Aqueous Solubility” value in data set [2] came to 1270 µg/mL.
For `Cc1c[n+]([Pt-2]([NH3+])([Cl])[Cl])c(C)cn1` [Example 5], the resistance factor with CH1R is 1.6; in the data set on A2780R, 5.8. Further, the IC50 with CH1R turned out to be 8 µM; in the data set on A2780, 6 µM; in the data set with A2780R, 35 µM; with CH1 it was 5 µM; in the data set on 41M it was 11.5 µM; with 41MR, 9 µM.
Take `Cc1ncc[n+]([Pt-2]([NH3+])([Cl])[Cl])c1C` [Example 6]: the figures for the resistance factor in the data set on CH1R and with A2780R were 1.7 and 5.1, respectively. In addition, the IC50 in the data set on CH1R worked out at 5.4 µM; with A2780, 3.4 µM; in the data set on A2780R, 17.5 µM; in the data set on CH1, 3.2 µM; in the data set with 41M it was 6.6 µM; in the data set with 41MR it was 6.5 µM.
With `Cc1n(C)cc[n+]1[Pt-2]([NH3+])([Cl])[Cl]` [Example 7], the resistance factor in the data set on CH1R came to 1.4; in the data set with A2780R, 2.5; in the data set on 41MR, 1.6. For the same compound, the IC50 in the data set on CH1R was determined as 12 µM; in the data set on A2780, 7.1 µM; in the data set with A2780R, 17.5 µM; with CH1, 8.3 µM; with 41M, 9.3 µM; with 41MR it was 15 µM.
With `Cc1[nH]cc[n+]1[Pt-2]([NH3+])([Cl])[Cl]` [Example 8], the figures for the resistance factor in the data set on CH1R and in the data set on 41MR were 2.5 and 0.8, respectively. For the same compound, the IC50 in the data set with CH1R amounted to 12.5 µM; in the data set with CH1 it was 5.2 µM; in the data set with 41M it was 21 µM; in the data set on 41MR it was 16.5 µM.
`Cc1oc(C)[n+]([Pt-2]([NH3+])([Cl])[Cl])c1C` [Example 10]: the resistance factor in the data set with CH1R came out at 1.8; in the data set with A2780R it was 4.1. In addition, the IC50 in the data set on CH1R worked out at 9.4 µM; with A2780, 9.8 µM; with A2780R it was 40 µM; in the data set with CH1, 5.2 µM; in the data set on 41M it was 11.8 µM; with 41MR, 11.5 µM.
Turning to `Cc1cc(C)[n+]([Pt-2]([NH3+])([OH])([OH])([Cl])[Cl])[nH]1` [Example 11, (OC-6-43)amminedichlorodihydroxo-(3.5-dimethylpyrazole)platinum(IV)], the resistance factor is listed as 2.5 in the data set on CH1R and 5.1 with A2780R. Besides, the IC50 amounted to 5 µM in the data set with CH1R; 7.2 µM with A2780; 37 µM in the data set with A2780R; 2 µM in the data set with CH1; 11 µM with 41M; 8.2 µM in the data set on 41MR.
Consider `Cn1cc[n+]([Pt-2]([NH3+])([OH])([OH])([Cl])[Cl])c1` [Example 12, (OC-6-43)-amminedichlorodihydroxo-(1-methylimidazole)platinum(IV)], for which the resistance factor with CH1R stood at 1.9; in the data set with A2780R it was 4.5; in the data set with 41MR it was 1.9. Besides, the IC50 with CH1R was found to be 24.5 µM; in the data set on A2780 it was 17 µM; in the data set on A2780R, 77 µM; with CH1, 13 µM; in the data set with 41M, 23.5 µM; in the data set with 41MR, 45 µM.
Regarding `CC(=O)[O][Pt-2]([NH3+])([Cl])([Cl])([O]C(C)=O)[n+]1ccnc(C)c1C` [Example 14, (OC-6-43)-amminedichlorodiacetato-(2,3-dimethylpyrazine)platinum(IV)], the resistance factor came to 3.2 in the data set on CH1R and 1.2 in the data set on 41MR. Moreover, the IC50 came to 30 µM in the data set with CH1R, 9.4 µM with CH1, 29 µM with 41M and 36 µM in the data set with 41MR.
Take `Cc1n(C)cc[n+]1[Pt-2]([NH3+])([OH])([OH])([Cl])[Cl]` [Example 15]: the resistance factor with CH1R is given as 1.4; in the data set with A2780R it was over 7.4; in the data set with 41MR, 0.9. Also, the IC50 in the data set on CH1R was 16.5 µM; in the data set with A2780, 13.5 µM; with A2780R, over 100 µM; in the data set with CH1, 12 µM; in the data set on 41M, 23 µM; in the data set on 41MR it was 21 µM.
As to `Cc1c[n+]([Pt-2]([NH3+])([OH])([OH])([Cl])[Cl])c(C)[nH]1` [Example 16], the figures for the resistance factor in the data set with CH1R, with A2780R and with 41MR were 2.1, over 8 and 1.5, respectively. The IC50 in the data set on CH1R is 21 µM; with A2780 it was 12.5 µM; with A2780R, over 100 µM; in the data set on CH1 it was 10 µM; with 41M it was 19 µM; in the data set on 41MR it was 28 µM.
Take `CC(=O)[O][Pt]([NH2])([Cl])([Cl])([NH]C1CCCCC1)[O]C(C)=O` [bis-acetato-ammine(cyclohexylamine)dichloroplatinum(IV), reference compound]: the resistance factor with CH1R came out at 4; in the data set on A2780R, 4.6; in the data set with 41MR, 1.2. For the same compound, the IC50 in the data set with CH1R was found to be 0.4 µM; with A2780, 0.4 µM; with A2780R, 1.84 µM; with 41M it was 0.5 µM; in the data set on 41MR, 0.6 µM. Besides, the “Aqueous Solubility” value in data set [2] was under 1000 µg/mL.
For the compound `CCCC(=O)[O][Pt]([NH2])([Cl])([Cl])([NH]C1CCCCC1)[O]C(=O)CCC` [bis-butyrato-ammine(cyclohexylamine)dichloroplatinum(IV), reference compound], the results for the resistance factor with CH1R and in the data set with 41MR were 3.7 and 0.67, respectively. For the same compound, the IC50 amounted to 0.024 µM with CH1R, 0.0066 µM in the data set with CH1, 0.072 µM with 41M and 0.048 µM in the data set with 41MR.
Regarding `[NH2][Pt]1([NH2])[O]C(=O)C2(CCC2)C(=O)[O]1` [carboplatin, diammine[1,1-cyclobutanedicarboxylato (2-)]-O,O′-platinum(II), reference compound], the resistance factor is 4.5 in the data set on CH1R and 2.7 in the data set with 41MR. For the same compound, the IC50 is 6 µM in the data set on CH1R; 1.8 µM in the data set with A2780; 25.9 µM with A2780R; 1.3 µM in the data set with CH1; 3.3 µM with 41M; 8.8 µM in the data set with 41MR. Besides, the Aqueous Solubility in data set [3] is 14000 µg/mL.
On to `N.N.[Cl][Pt][Cl]` [cisplatin, [PtCl2(NH3)2], reference compound], for which the resistance factor with CH1R came out at 6.5; in the data set on 41MR, 4.6. Also, the IC50 with CH1R came out at 0.71 µM; in the data set on A2780 it was 0.33 µM; in the data set with A2780R it was 5.2 µM; in the data set on CH1, 0.11 µM; with 41M, 0.26 µM; in the data set on 41MR it was 1.2 µM. The “maximum tolerated dose (MTD)” value in [1] is 11.3 mg/kg.
Turning to “cis-ammine(2-methylpyridine)dichloroplatinum(II) [reference compound]”, the resistance factor in the data set on CH1R is on record as 1; in the data set with A2780R it was 4.8; in the data set on 41MR it was 1.1. Also, the IC50 in the data set on CH1R is 2.1 µM; in the data set on A2780 it was 2.5 µM; with A2780R, 12 µM; with CH1, 2.2 µM; with 41M, 5.6 µM; with 41MR, 6 µM.
